Where a SMILES comes first, the peptide text is derived from it.
Target: HLA A*3001 (Homo sapiens, UniProt P04439, D140H/D185E/E176W/F33S/G80R/H175R/K168Q/R138E/R41S)
Experiment: biochemical
Format: binding

Chain of HLA A*3001 (P04439 25-365 limits assumed, stated change not applied): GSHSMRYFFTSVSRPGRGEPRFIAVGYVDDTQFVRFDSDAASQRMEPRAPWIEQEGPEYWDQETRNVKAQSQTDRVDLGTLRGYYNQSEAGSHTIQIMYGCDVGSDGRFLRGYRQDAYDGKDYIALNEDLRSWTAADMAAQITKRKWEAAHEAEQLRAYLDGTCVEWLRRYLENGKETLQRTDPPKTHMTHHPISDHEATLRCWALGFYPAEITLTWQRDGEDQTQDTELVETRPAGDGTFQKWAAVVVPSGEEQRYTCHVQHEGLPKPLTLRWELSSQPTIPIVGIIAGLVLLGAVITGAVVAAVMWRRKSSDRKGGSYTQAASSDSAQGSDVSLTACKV

SMILES: CC[C@H](C)[C@H](NC(=O)[C@H](CC(N)=O)NC(=O)CNC(=O)[C@H](CC(N)=O)NC(=O)[C@H](CCCCN)NC(=O)[C@@H](NC(=O)[C@H](C)N)[C@@H](C)O)C(=O)N[C@@H](Cc1ccccc1)C(=O)N[C@H](C(=O)O)C(C)C [3102.0093] (H-ATKNGNIFV-OH)
- IC50: 3.9 nM

SMILES: CC[C@H](C)[C@H](NC(=O)[C@H](CC(C)C)NC(=O)[C@H](C)NC(=O)[C@@H](NC(=O)[C@H](Cc1c[nH]cn1)NC(=O)[C@@H](NC(=O)[C@@H](N)CCCNC(=N)N)[C@@H](C)O)[C@@H](C)O)C(=O)N[C@@H](Cc1ccccc1)C(=O)N[C@@H](CC(C)C)C(=O)O [3102.0094] (H-RTHTALIFL-OH)
- IC50: 0.7 nM

SMILES: CC[C@H](C)[C@H](NC(=O)[C@@H](NC(=O)[C@H](CCCCN)NC(=O)[C@H](CO)NC(=O)[C@H](C)N)[C@@H](C)O)C(=O)N[C@@H](CC(N)=O)C(=O)N[C@@H](C)C(=O)N[C@@H](CC(C)C)C(=O)N[C@H](C(=O)O)C(C)C [3102.0095] (H-ASKTINALV-OH)
- IC50: 0.18 nM

SMILES: CC[C@H](C)[C@H](NC(=O)[C@H](CCC(N)=O)NC(=O)[C@H](Cc1c[nH]cn1)NC(=O)[C@H](CO)NC(=O)[C@H](CCC(=O)O)NC(=O)[C@H](CCCCN)NC(=O)[C@@H](NC(=O)[C@@H](N)C(C)C)[C@@H](C)O)C(=O)N[C@@H](CCCCN)C(=O)O [3102.0096] (H-VTKESHQIK-OH)
- IC50: 1.5 nM

SMILES: CC[C@H](C)[C@H](NC(=O)[C@@H](N)CCCCN)C(=O)N[C@@H](CCCCN)C(=O)N[C@@H](C)C(=O)NCC(=O)N1CCC[C@H]1C(=O)N[C@@H](CCCNC(=N)N)C(=O)N[C@@H](Cc1ccc(O)cc1)C(=O)N[C@H](C(=O)O)C(C)C [3102.0097] (H-KIKAGPRYV-OH)
- IC50: 6.9 nM

SMILES: CC[C@H](C)[C@H](N)C(=O)N[C@@H](CO)C(=O)N[C@@H](CCCNC(=N)N)C(=O)N[C@@H](Cc1ccccc1)C(=O)N[C@@H](C)C(=O)N[C@@H](CC(N)=O)C(=O)N[C@@H](CC(C)C)C(=O)N[C@H](C(=O)N[C@@H](CCCCN)C(=O)O)[C@@H](C)CC [3102.0098] (H-ISRFANLIK-OH)
- IC50: 13 nM

SMILES: CC[C@H](C)[C@H](NC(=O)[C@H](Cc1c[nH]cn1)NC(=O)[C@@H](NC(=O)[C@H](CC(N)=O)NC(=O)[C@H](CCCCN)NC(=O)[C@@H](NC(=O)[C@@H](N)CCCCN)C(C)C)C(C)C)C(=O)NCC(=O)NCC(=O)O [3102.0099] (H-KVKNVHIGG-OH)
- IC50: 0.34 nM

SMILES: CC[C@H](C)[C@H](NC(=O)[C@H](CCSC)NC(=O)[C@H](Cc1ccccc1)NC(=O)[C@H](CC(=O)O)NC(=O)[C@H](CC(N)=O)NC(=O)[C@H](CCCCN)NC(=O)[C@@H](NC(=O)[C@@H](N)Cc1c[nH]cn1)[C@@H](C)CC)C(=O)N[C@@H](CCCCN)C(=O)O [3102.0101] (H-HIKNDFMIK-OH)
- IC50: 1.6 nM

SMILES: CC(C)[C@H](NC(=O)[C@H](C)NC(=O)[C@H](Cc1ccccc1)NC(=O)[C@H](CO)NC(=O)[C@H](CS)NC(=O)[C@H](CCCNC(=N)N)NC(=O)[C@H](Cc1ccc(O)cc1)NC(=O)[C@@H](N)CCCNC(=N)N)C(=O)N[C@@H](C)C(=O)O [3102.0102] (H-RYRCSFAVA-OH)
- IC50: 0.0038 nM

SMILES: CC(C)C[C@H](NC(=O)[C@H](CO)NC(=O)[C@@H](N)CCCCN)C(=O)N[C@@H](Cc1ccc(O)cc1)C(=O)N[C@@H](CO)C(=O)N[C@@H](Cc1c[nH]cn1)C(=O)N[C@@H](CCC(N)=O)C(=O)N[C@@H](CC(C)C)C(=O)N[C@H](C(=O)O)C(C)C [3102.0103] (H-KSLYSHQLV-OH)
- IC50: 12 nM

SMILES: CC[C@H](C)[C@H](NC(=O)[C@@H]1CCCN1C(=O)[C@H](CC(C)C)NC(=O)[C@H](CCCNC(=N)N)NC(=O)[C@@H](NC(=O)[C@@H](N)CCSC)[C@@H](C)O)C(=O)N[C@@H](CC(C)C)C(=O)N[C@@H](CC(C)C)C(=O)N[C@@H](CC(C)C)C(=O)O [3102.0104] (H-MTRLPILLL-OH)
- IC50: 0.65 nM

SMILES: CC(C)C[C@H](NC(=O)[C@@H](N)CCCCN)C(=O)N[C@@H](CCCNC(=N)N)C(=O)N[C@@H](CS)C(=O)N[C@@H](CCCNC(=N)N)C(=O)N[C@@H](CC(N)=O)C(=O)N[C@H](C(=O)N[C@@H](CCC(=O)O)C(=O)N[C@@H](C)C(=O)O)[C@@H](C)O [3102.0105] (H-KLRCRNTEA-OH)
- IC50: 14 nM

SMILES: CC[C@H](C)[C@H](NC(=O)[C@@H](N)CCCNC(=N)N)C(=O)N[C@@H](CCCNC(=N)N)C(=O)N[C@@H](CCC(N)=O)C(=O)N[C@@H](CCC(N)=O)C(=O)N[C@@H](CC(C)C)C(=O)N1CCC[C@H]1C(=O)N[C@@H](CC(C)C)C(=O)N[C@@H](Cc1ccc(O)cc1)C(=O)O [3102.0107] (H-RIRQQLPLY-OH)
- IC50: 13 nM

SMILES: CC(C)C[C@H](NC(=O)[C@H](CC(N)=O)NC(=O)[C@H](CCC(N)=O)NC(=O)[C@H](CC(N)=O)NC(=O)[C@H](CO)NC(=O)[C@H](CC(C)C)NC(=O)[C@H](Cc1c[nH]cn1)NC(=O)[C@@H](NC(=O)[C@@H](N)Cc1c[nH]cn1)[C@@H](C)O)C(=O)O [3102.0108] (H-HTHLSNQNL-OH)
- IC50: 5.8 nM

SMILES: CC[C@H](C)[C@H](NC(=O)[C@H](CC(C)C)NC(=O)[C@H](CCCNC(=N)N)NC(=O)[C@H](CCC(N)=O)NC(=O)[C@H](CCCNC(=N)N)NC(=O)[C@H](Cc1ccc(O)cc1)NC(=O)[C@@H](N)CCCNC(=N)N)C(=O)N[C@@H](CO)C(=O)N[C@@H](CC(C)C)C(=O)O [3102.0110] (H-RYRQRLISL-OH)
- IC50: 5.2 nM

SMILES: CC[C@H](C)[C@H](NC(=O)[C@H](Cc1ccc(O)cc1)NC(=O)[C@H](CO)NC(=O)[C@H](CC(C)C)NC(=O)[C@H](Cc1ccccc1)NC(=O)[C@H](Cc1c[nH]cn1)NC(=O)[C@H](CCCNC(=N)N)NC(=O)[C@@H](NC(=O)[C@@H](N)CCCNC(=N)N)[C@@H](C)O)C(=O)O [3102.0111] (H-RTRHFLSYI-OH)
- IC50: 0.24 nM

SMILES: CC[C@H](C)[C@H](NC(=O)[C@H](CC(N)=O)NC(=O)[C@H](CCCNC(=N)N)NC(=O)[C@@H](NC(=O)[C@H](CCCNC(=N)N)NC(=O)[C@H](CO)NC(=O)CN)C(C)C)C(=O)N[C@H](C(=O)N[C@@H](C)C(=O)O)[C@@H](C)CC [3102.0112] (H-GSRVRNIIA-OH)
- IC50: 8.9 nM

SMILES: NCCCC[C@H](NC(=O)[C@H](CS)NC(=O)[C@@H]1CCCN1C(=O)[C@H](CC(N)=O)NC(=O)[C@H](CCC(=O)O)NC(=O)[C@H](Cc1ccc(O)cc1)NC(=O)[C@H](CCCCN)NC(=O)[C@H](Cc1c[nH]c2ccccc12)NC(=O)[C@@H](N)CCCCN)C(=O)O [3102.0113] (H-KWKYENPCK-OH)
- IC50: 15 nM

SMILES: CC(C)[C@H](NC(=O)[C@H](CO)NC(=O)[C@H](C)NC(=O)[C@H](Cc1c[nH]cn1)NC(=O)[C@H](CC(N)=O)NC(=O)[C@H](Cc1ccccc1)NC(=O)[C@H](C)NC(=O)[C@@H](N)CCCCN)C(=O)N[C@@H](CCCCN)C(=O)O [3102.0118] (H-KAFNHASVK-OH)
- IC50: 35 nM

SMILES: CSCC[C@H](NC(=O)[C@H](CCCNC(=N)N)NC(=O)CNC(=O)[C@H](CO)NC(=O)[C@H](CO)NC(=O)[C@@H](NC(=O)[C@@H](N)CCCCN)[C@@H](C)O)C(=O)N1CCC[C@H]1C(=O)N[C@H](C(=O)O)C(C)C [3102.0119] (H-KTSSGRMPV-OH)
- IC50: 2 nM

SMILES: C[C@H](NC(=O)[C@H](Cc1ccc(O)cc1)NC(=O)[C@H](CCCNC(=N)N)NC(=O)[C@H](Cc1ccc(O)cc1)NC(=O)[C@@H](NC(=O)[C@@H](N)CCCCN)[C@@H](C)O)C(=O)N[C@@H](Cc1ccccc1)C(=O)N[C@@H](CO)C(=O)N[C@@H](CCCCN)C(=O)O [3102.0120] (H-KTYRYAFSK-OH)
- IC50: 22 nM

SMILES: CSCC[C@H](NC(=O)[C@@H](N)CCCCN)C(=O)N[C@@H](CCCNC(=N)N)C(=O)N[C@@H](CC(=O)O)C(=O)N[C@H](C(=O)N[C@@H](CC(C)C)C(=O)N1CCC[C@H]1C(=O)N[C@@H](C)C(=O)N[C@@H](CCCCN)C(=O)O)[C@@H](C)O [3102.0121] (H-KMRDTLPAK-OH)
- IC50: 1.6 nM

SMILES: CC[C@H](C)[C@H](NC(=O)[C@H](Cc1ccc(O)cc1)NC(=O)[C@@H](NC(=O)[C@@H](N)CCCCN)C(C)C)C(=O)N[C@@H](CC(N)=O)C(=O)N[C@@H](Cc1c[nH]cn1)C(=O)N1CCC[C@H]1C(=O)N[C@@H](Cc1ccccc1)C(=O)N[C@@H](CCSC)C(=O)O [3102.0124] (H-KVYINHPFM-OH)
- IC50: 0.52 nM

SMILES: CC[C@H](C)[C@H](N)C(=O)N[C@H](C(=O)N[C@@H](CCCNC(=N)N)C(=O)N[C@@H](CC(=O)O)C(=O)N[C@@H](CO)C(=O)N[C@@H](CCSC)C(=O)N[C@@H](Cc1c[nH]c2ccccc12)C(=O)N[C@@H](Cc1ccc(O)cc1)C(=O)N[C@H](C(=O)O)[C@@H](C)CC)C(C)C [3102.0125] (H-IVRDSMWYI-OH)
- IC50: 20 nM

SMILES: CC(C)C[C@H](NC(=O)[C@H](Cc1c[nH]cn1)NC(=O)[C@H](CC(N)=O)NC(=O)[C@H](CC(N)=O)NC(=O)[C@H](CCCNC(=N)N)NC(=O)[C@H](CO)NC(=O)[C@@H](N)[C@@H](C)O)C(=O)N1CCC[C@H]1C(=O)N[C@@H](C)C(=O)O [3102.0126] (H-TSRNNHLPA-OH)
- IC50: 15 nM

SMILES: CC[C@H](C)[C@H](NC(=O)[C@H](Cc1ccccc1)NC(=O)[C@@H]1CCCN1C(=O)[C@H](C)NC(=O)[C@H](CS)NC(=O)[C@H](Cc1c[nH]c2ccccc12)NC(=O)[C@H](CCCCN)NC(=O)[C@@H](NC(=O)[C@@H](N)CCSC)[C@@H](C)O)C(=O)O [3102.0130] (H-MTKWCAPFI-OH)
- IC50: 0.17 nM

SMILES: CC(C)C[C@H](NC(=O)[C@H](Cc1c[nH]cn1)NC(=O)[C@H](CC(N)=O)NC(=O)[C@H](CS)NC(=O)[C@H](CCCNC(=N)N)NC(=O)[C@H](C)NC(=O)[C@@H](N)CCCCN)C(=O)N[C@H](C(=O)N[C@@H](CCCCN)C(=O)O)[C@@H](C)O [3102.0131] (H-KARCNHLTK-OH)
- IC50: 0.21 nM

SMILES: CC[C@H](C)[C@H](NC(=O)[C@@H](NC(=O)[C@H](Cc1ccccc1)NC(=O)[C@H](CCSC)NC(=O)[C@@H](NC(=O)[C@@H](N)CCCCN)C(C)C)C(C)C)C(=O)N[C@@H](CCCNC(=N)N)C(=O)N[C@@H](Cc1ccccc1)C(=O)N[C@@H](CCCCN)C(=O)O [3102.0133] (H-KVMFVIRFK-OH)
- IC50: 0.6 nM

SMILES: CSCC[C@H](NC(=O)[C@H](Cc1c[nH]cn1)NC(=O)[C@H](CC(N)=O)NC(=O)[C@H](CCCNC(=N)N)NC(=O)[C@H](Cc1ccccc1)NC(=O)[C@@H](N)CCCNC(=N)N)C(=O)N[C@@H](CS)C(=O)N[C@@H](CC(C)C)C(=O)N[C@H](C(=O)O)C(C)C [3102.0134] (H-RFRNHMCLV-OH)
- IC50: 31 nM

SMILES: CC(C)[C@H](NC(=O)[C@@H](N)CO)C(=O)N[C@@H](CCCCN)C(=O)N[C@@H](CS)C(=O)N[C@@H](CCC(N)=O)C(=O)N[C@@H](CO)C(=O)N1CCC[C@H]1C(=O)N1CCC[C@H]1C(=O)N[C@@H](CO)C(=O)O [3102.0135] (H-SVKCQSPPS-OH)
- IC50: 17 nM
